Test results reported in the NIST ThermoML archive (doi:10.1021/je900021g).
Numbers after ± are expanded uncertainties.

Settings: Crystal; DTA

SMILES: O=C(O)CCC(=O)O [butanedioic acid]
- Normal melting temperature: 188 ± 1 °C
